SMILES strings stand for the structures.

Consider 3 molecules from patent US10945931B2, “Shaping keratin fibres using dialdehyde compounds” (The Procter & Gamble Company, priority 2015, dated 2021).

The test in a line: Hair straightening efficacy on hair switches, expert grading after wash-and-dry cycles. As to conditions: 10% treatment, QSP water buffered at pH 10; flat iron 232° C., 8 passes; after 10 wash cycles; 0-10 scale (0 curly, 10 very straight). The procedure: The hair straightening efficacy is tested for the crosslinking compositions described herein. Switches of low lift naturally curly hair are employed. These are shampooed with a Pantene clarifying shampoo to ensure the hair is in a clean state with no residues that could affect the end result. The switches are then rinsed. Excess water is removed from the hair by wringing out the switches. The switches are treated with a crosslinking composition; QSP water buffered at pH 10. These ingredients are mixed on a spinner plate for 30 mins. 0.5 g of crosslinking composition per 1 g hair is employed. The crosslinking composition is left on the hair for 30 minutes. After this time, the hair is blow dried and brushed. The switches are then mechanically straightened with a flat iron (at 450° F. [232° C.] with 8 passes.
The switches are then imaged. To simulate durability, the switches are then given one wash-and-dry cycle. One wash-and-dry cycle involves shampooing with a Hairtrition shampoo (Hairtrition Color Protect sulfate-free shampoo from Zotos), rinsing and then drying in a hot box. Once dry the switches are imaged again. The switches are then given 9 further wash-and-dry cycles. Once dry the switches are imaged again. An expert grader gives the images of the switches a score on a 0-10 scale. The scale is a standard scale set as curly hair having 4-5 nodes of curls is a score of 0 and very straight hair is a 10. Thus, the switches are compared to a normal state of hair. Using an expert grader is reliable because the grader is trained on measuring/scaling the configuration of the hair from straight to curly in a consistent way. Numeric data obtained by this method is averaged, and statistical analysis is conducted using JMP statistical software available from the SAS Institute at the […] confidence level. […] However, given similar straightening efficacy the dialdehyde compounds described herein have advantages over glutaraldehyde due to the lower cost of materials and increased safety profile.
Take `O=CCCCC=O` [Glutaraldehyde, glutaraldehyde]: the “Straightening efficacy Mean grade” value was 5.00.

Take `O=CC(O)CO` (stereo not drawn) [Glyceraldehyde]: the “Straightening efficacy Mean grade” value stood at 2.67. The result for `O=CC(O)C(O)C(O)C=O` (stereo not drawn) [Pentodialdose, pentodialdose] reads 5.33.
